Experimental data as given in article PMC10487708, “Chlorin E6-Curcumin-Mediated Photodynamic Therapy Promotes an Anti-Photoaging Effect in UVB-Irradiated Fibroblasts” (International Journal of Molecular Sciences, 2023).

Assay: Ex vivo fluorescence imaging and biodistribution in ICR mice
Details: 2.5 mg/kg IV, 3 h post-injection
Description: To confirm the organ-specific signaling intensities of different Ce6-curcumin derivatives, we measured ex-vivo FLI in different organs of ICR mice after 3 h of intravenous drug administration. The drug interval time of 3 h before light irradiation in PDT for Ce6-curcumin derivatives can be explained by the pharmacokinetics and imaging study of Ce6 provided in Figures S1 and S2. Three hours after IV injection of 2.5 mg/kg of Ce6- hexane-curcumin, Ce6-propane-curcumin, and Ce6-diPEG-curcumin, ex-vivo images were obtained. […] Furthermore, the fluorescence intensity of Ce6-curcumin derivatives was highest in organs with a larger blood supply, including the liver and lungs.
(B) Biodistribution of the three Ce6-curcumin derivatives in the organ lysates after 3 h post-injection. The quantitation of fluorescence signals of Ce6 derivatives has been represented as a bar. Data were represented as mean ± SD from at least three independent experiments and were analyzed by one-way ANOVA with Tukey’s post hoc test: * p < 0.01, compared with vehicle-treated control of the spleen, ^# p < 0.01, compared with vehicle-treated control of the lungs, ^& p < 0.01, compared with vehicle-treated control of the liver.
Biodistribution analysis for Ce6 and Ce6-curcumin derivatives was calculated by measuring tissue fluorescence. […] The fluorescence intensity was normalized to the tissue weight.

ex vivo fluorescence signal in organs: highest fluorescence
Structure (SMILES): C=Cc1c(C)c2cc3nc(c(CC(=O)OC)c4[nH]c(cc5nc(cc1[nH]2)C(C)=C5CC)c(C)c4C(=O)NCCCOCCOCCOCCCNC(=O)CCCC(=O)Oc1ccc(/C=C/C(=O)CC(=O)/C=C/c2ccc(O)c(OC)c2)cc1OC)C(CCC(=O)OC)C3C (stereo not shown) [Ce6-diPEG-curcumin]
